We go through five compounds from article PMC8308625, “Preclinical Studies in Anti-Trypanosomatidae Drug Development” (Pharmaceuticals, 2021).

Like-named read-outs stand apart in the source and are kept apart here.

Details of data set [1]: method as in data provided by the DNDi program, non-published. Particulars: ref data provided by the DNDi program, non-published; cited from earlier work.
The target in data set [2] is Sphingosine-1-phosphate receptor 4. The arrangement: method as in pubchem.ncbi.nlm.nih.gov. Particulars: ref pubchem.ncbi.nlm.nih.gov; cited from earlier work.
The nature of data set [3]: Nonspecific cytotoxicity in murine macrophages (MTT). Particulars: mouse, J774.1 murine macrophages.
Procedure: (§1) Cell viability was then assessed using the 3-(4,5-dimethylthiazol-2-yl)-2,5-diphenyltetrazolium bromide (MTT) colorimetric assay [1]. […] All assays were performed in triplicate [35].
In another data set the test system is C. albicans. The arrangement: method as in pubchem.ncbi.nlm.nih.gov. Particulars: ref pubchem.ncbi.nlm.nih.gov; read-out: EC50 C. albicans Growth in the Presence of Fluconazole; cited from earlier work.
A further data set has as its target Replicative DNA helicase. Set-up: method as in pubchem.ncbi.nlm.nih.gov. Particulars: ref pubchem.ncbi.nlm.nih.gov; cited from earlier work.
For data set [4], the system named is L. infantum veterinary isolate (MCAN_UY_2015_gPL8). The experiment in a line: Growth inhibition of L. infantum veterinary isolate promastigotes (resazurin). The settings on record: for Selectivity Index MΦ/Veterinary: EC50 J774.1 macrophages versus L. infantum veterinary isolate; for EC50: Leishmania infantum; for Selectivity Index MΦ/Lin–Vet: EC50 mammalian cell line/EC50 L. infantum veterinary isolate. A general note: Resazurin is reduced to fluorescent resorufin, in cell work by metabolically active cells.

For another data set, the system named is Hsf1 protein. Set-up: method as in pubchem.ncbi.nlm.nih.gov. Particulars: ref pubchem.ncbi.nlm.nih.gov; cited from earlier work.
For data set [5], the target named is Aldehyde dehydrogenase 1 family, member A1. Set-up: method as in pubchem.ncbi.nlm.nih.gov. Particulars: ref pubchem.ncbi.nlm.nih.gov; cited from earlier work.
Data set [6] deals with Neuropeptide S receptor isoform A. The arrangement: method as in pubchem.ncbi.nlm.nih.gov. Particulars: ref pubchem.ncbi.nlm.nih.gov; cited from earlier work.
Data set [7] deals with L. infantum reference strain (MHOM/BR/2002/LPC-RPV). The experiment in a line: Growth inhibition of L. infantum reference strain promastigotes (resazurin). The settings on record: for Selectivity Index MΦ/Reference: EC50 J774.1 macrophages versus L. infantum reference strain; for EC50: Leishmania infantum.
In data set [8] the test system is Cell division cycle 42 (GTP binding protein, 25kDa). Set-up: method as in pubchem.ncbi.nlm.nih.gov. Particulars: ref pubchem.ncbi.nlm.nih.gov; cited from earlier work.
The subject of data set [9] is J774.1 murine macrophages. Put plainly: Nonspecific cytotoxicity in murine macrophages (MTT). The settings on record: Mus musculus, J774.1, read-out: EC50 ± SD MΦ.
Procedure: as §1
Data set [10] concerns L. infantum veterinary isolate (MCAN_UY_2015_gPL8). The settings on record: cited from earlier work.
Data set [11] concerns L. infantum reference strain (MHOM/BR/2002/LPC-RPV). Particulars: cited from earlier work.
The test system of data set [12] is L. amazonensis. Put plainly: Growth inhibition of L. amazonensis promastigotes (resazurin). Particulars: for Selectivity Index MΦ/L. amaz: EC50 mammalian cell line/EC50 L. amazonensis.
Data set [13] relates to T. cruzi. The settings on record: cited from earlier work.
The next data set has as its system L. braziliensis. The settings on record: Table 3, thiazolidene hydrazines; ref [13],[16],[19],[23],[25]; read-out: EC50 ± SD L. brazils; cited from earlier work.
In a further data set the test system is fibroblasts (NCTC929). The experiment in a line: Cytotoxicity in fibroblasts. In kind it is cell-based. Particulars: NCTC-929, read-out: EC50 ± SD Fibroblasts. From the text: Table 5 Cytotoxicity and selectivity index of reference drugs and selected molecules. | column: EC50 ± SD (µM) ^a / Fibroblasts
The conditions of data set [14]: cited from earlier work.
The next data set has as its system T. brucei. Put plainly: Growth inhibition of T. brucei bloodstream form trypomastigotes (resazurin). In kind it is cell-based, Trypanosoma brucei brucei. Particulars: Trypanosoma brucei; Table 3, thiazolidene hydrazines; read-out: EC50 ± SD T. brucei. How it is done:
Compounds were dissolved in dimethylsulfoxide (DMSO).

Data set [15] in a line: Acute oral toxicity (up and down test). The settings on record: mice.
The conditions of data set [16]: cited from earlier work. This is another data set of the same source.
Data set [17] has as its system L. amazonensis. Put plainly: Murine model of cutaneous Leishmaniasis. Particulars: BALB/c mice, oral, when treatment begins (Figure 2C).
Procedure: For the in vivo model of cutaneous disease, 1 × 10^7 amastigote parasites of L. amazonensis PH8 were inoculated in the upper part of the left paw of the mice. […] The mice were sacrificed 30 days post-infection. The antiparasitic effect was evaluated by two methods: the weekly evolution of the diameter of the infected paw throughout the experiment (Figure 2C) and the quantification of the parasite load in the infected area at the end of the experiment (Figure 2A).
Golden hamsters (Mesocritus auratus) were used to maintain L. amazonensis infections with the parasites passage every 6 to 8 weeks. BALB/c mice (female and male) supplied by the IFFA-CREDO, Lyon, France, and bred at the Instituto de Investigaciones en Ciencias de la Salud, Asuncion, Paraguay, were inoculated in the right hind footpad with 2 × 10^6 L. amazonensis amastigotes in 100 µL PBS obtained from donor hamsters. Disease progression was monitored by the measurement of lesion diameters for 7 to 12 weeks. […] Two days before the administration of the drug, the mice were randomly divided into groups of eight. […] The animals were euthanized two weeks after cessation of treatments to assess parasitological loads in the infected footpad. […] Following incubation at 27 °C for seven days, cultures were examined with an inverted microscope (Olympus, Tokyo, Japan) at a magnification of ×400. The number of parasites per gram in the lesion was calculated by the following equation: Parasite burden = geometric mean of the number of parasites in each duplicate/(number of microscope field counted × weight of lesion × (25,000) hemocytometer correction factor) [37]. […] Comparisons of parasite suppression in the infected footpads of the untreated and drug-treated groups were performed by Student’s t-test. One-way ANOVA (as a non-parametric statistical test) was also used on ranks.
The conditions of data set [18]: mice, up and down test, cited from earlier work.
Details of data set [19]: method as in PMID 24749923, PMID 26492824, PMID 25512408. Particulars: ref [13],[14],[15]; cited from earlier work.
The next data set relates to L. infantum amastigote. The experiment in a line: Single dose study in the amastigote form of L. infantum. The settings on record: Leishmania infantum, single dose 10 µM. The data set is classed as cell-based.
Data set [20] relates to hepatocellular carcinoma (HepG2) cell line. The settings on record: cited from earlier work.
The test system of a further data set is T. b. brucei. Particulars: ref Duffy et al., 2017; read-out: EC50 T. brucei brucei; cited from earlier work.
Data set [21] concerns Leishmania donovani (amastigotes). The settings on record: cited from earlier work.
For the next data set, the system named is P. falciparum. The settings on record: cited from earlier work.
Data set [22] deals with T. cruzi. Set-up: method as in Duffy et al., 2017. The settings on record: ref Duffy et al., 2017; cited from earlier work.
A further data set has as its system Candida albicans Biofilm. The arrangement: method as in Vila and Lopez-Ribot, 2017. Particulars: ref Vila and Lopez-Ribot, 2017; read-out: EC50 Candida albicans Biofilm Inhibitor; cited from earlier work.
Where [23] appears, read: read-out: EC50 L. infantum Veterinary.
The mark [24] stands for this setting: read-out: EC50 L. infantum Reference.
[25] abbreviates: Table 3, thiazolidene hydrazines, ref [13],[16],[19],[23],[25], read-out: EC50 ± SD T. cruzi.

With `COc1cccc(-n2nnnc2S(C)(=O)=O)c1` [MMV272144, 1-(3-Methoxyphenyl)-5-(methylsulfonyl)-1H-tetrazole], the in vivo absorption entry in data set [1] was “low”. The metabolic stability result in data set [1] is listed as “low”. For the same compound, the EC50 (as a rule, the concentration at which the effect is half-maximal) in [2] was 1.3 µM; with C. albicans, 1.8 µM; on Replicative DNA helicase, 3.1 µM; in [4] (setting [23]), 1.2 ± 0.1 µM; in the data set on Hsf1 protein it was 6.6 µM; in data set [5], 12.5 µM. Besides, the concentration giving a half-maximal response (EC50) was 10 µM in data set [6], 2.4 ± 0.3 µM in data set [7] (setting [24]) and 15 µM in [8]. The compound also yielded a concentration for a half-maximal effect (EC50) at 48 h in data set [3] above 50 µM. Also, the “Selectivity Index MΦ/Veterinary” value in data set [4] is given as above 42. Besides, the “Selectivity Index MΦ/Reference” value in [7] was above 21.
In data set [3], `CCCCCCCCCCCCCCCCOP(=O)([O-])OCC[N+](C)(C)C` [Miltefosine, reference compound] showed an EC50 at 48 h of 50 ± 7 µM. For the same compound, the EC50 in data set [9] is 50 ± 7 µM; in [10] (Miltefosine comparative data, ref [19], read-out: EC50 L. infantum Veterinary) it was 4.1 ± 0.1 µM; in data set [10] (Table 3, Miltefosine control, footnote f, ref [13],[16],[19],[23],[25], read-out: EC50 ± SD Lin–Vet), 4.1 ± 0.1 µM; in data set [11] (Miltefosine comparative data, ref [19], read-out: EC50 L. infantum Reference) it was 5.3 ± 0.1 µM; in data set [11] (Table 3, Miltefosine control, footnote f, ref [13],[16],[19],[23],[25], read-out: EC50 ± SD Lin–Ref) it was 5.3 ± 0.1 µM; in the data set with T. cruzi [13] (setting [25]), 8 ± 2 µM. The EC50 with L. braziliensis was 5 ± 2 µM. Besides, the “Selectivity Index MΦ/Veterinary” value in data set [4] is 12. Further, in data set [4], the “Selectivity Index MΦ/Lin–Vet” value turned out to be 10. Also, the “Selectivity Index MΦ/L. amaz” value with L. amazonensis [12] is recorded as 10. Also, in data set [7], the “Selectivity Index MΦ/Reference” value was 10.
With `C=CCn1c(-c2ccc(Cl)cc2)cs\c1=N/N=C/C=C/c1ccco1` [Compound 266], the EC50 was 405 ± 10 µM in the data set with fibroblasts (NCTC929); 5 ± 1 µM in the data set on T. brucei; 60 ± 6 µM in data set [9]; 9 ± 1 µM in data set [4] (read-out: EC50 ± SD Lin–Vet); 7 ± 1 µM in the data set on L. amazonensis [12] (Leishmania amazonensis, read-out: EC50 ± SD L. amaz); 1.6 ± 0.5 µM with T. cruzi [13] (setting [25]). The EC50 in the data set on T. cruzi [13] (amastigotes, multiple strains, ref [13],[14],[15], read-out: EC50 in vitro anti-T. cruzi, amastigotes) was above 0.25 µM; in data set [7] (read-out: EC50 ± SD Lin–Ref) it was 2 ± 0.2 µM; in the data set on L. braziliensis, 20 ± 2 µM. The “micronucleus test, genotoxicity” value in data set [14] (previous works, ref [13],[16]) is reported as “not genotoxic”. Moreover, the “Micronucleus test in mice (Genotoxicity)” value in data set [14] (ref [13],[14],[15]) is given as “no”. Besides, in [15], the “survival in the acute toxicity model in vivo” value is recorded as 100%. The “AMES test, mutagenic capacity” value in data set [16] (previous works, ref [13],[16]) is “negative”. For the same compound, the “Ames Test (mutagenicity)” value in [16] (ref [13],[14],[15]) is given as “no”. Further, the “Selectivity Index MΦ/Lin–Vet” value in data set [4] is given as 7. For the same compound, the “Selectivity Index MΦ/L. amaz” value with L. amazonensis [12] came to 9. The “diameter of the paw” value in the data set with L. amazonensis [17] was “begins to decrease”. For the same compound, the “Selectivity Index MΦ/Lin–Ref” value in data set [7] (EC50 mammalian cell line/EC50 L. infantum reference strain) amounted to 30. Besides, in data set [18] (previously evaluated, ref [13],[16]), the “acute toxicity LD50” value is > 2000 mg/kg of weight. For the same compound, in [18] (ref [13],[14],[15]), the “Acute oral toxicity LD50” value is “LD50 > 2000 mg/kg in mice”. Moreover, the “Stability in vitro (microsomal, plasma, other solutions)” value in data set [19] is “high”. Further, testing at 10 µM with L. infantum amastigote gave an inhibition of 69%.
As to `c1ccc(-c2nc(NC3CCCCC3)cc(C3CC3)n2)nc1` [MMV021013, N-Cyclohexyl-6-cyclopropyl-2-pyridin-2-ylpyrimidin-4-amine], the EC50 in data set [20] (ref Peña et al., 2015, read-out: EC50 HepG2 human cell line) was 400 µM; in the data set with T. b. brucei, 3.5 µM; in data set [4] (setting [23]), 0.3 ± 0.1 µM; in [21] (ref Peña et al., 2015) it was 0.8 µM; in the data set with P. falciparum (ref Ballell et al., 2013, read-out: EC50 P. falciparum), 0.7 µM; in data set [7] (setting [24]) it was 0.4 ± 0.1 µM. Further, the half-maximal effective concentration (EC50) in the data set on T. cruzi [22] is 1.7 µM. The same compound showed an EC50 at 48 h in data set [3] above 50 µM. Moreover, in [4], the “Selectivity Index MΦ/Veterinary” value is on record as above 167. For the same compound, the “activity against the L. donovani form found in a mammalian host” value in data set [21] (ref [23],[24]) is listed as “significant activity”. The “Selectivity Index MΦ/Reference” value in data set [7] is on record as above 125.
For `Cc1[nH]c2ccccc2c1[C@H](c1cccs1)N1CCN(C)CC1` [MMV688768, 2-Methyl-3-[(R)-(4-methylpiperazin-1-yl)-thiophen-2-ylmethyl]-1H-indole], the EC50 is 32 µM in [20] (ref Vila and Lopez-Ribot, 2017, read-out: EC50 HepG2 cell line); 1.5 µM in the data set with T. b. brucei; 6.8 ± 0.1 µM in data set [4] (setting [23]); 4.7 µM in the data set with P. falciparum (ref Duffy et al., 2017, read-out: EC50 P. falciparum ABS activity); 9.8 ± 0.5 µM in data set [7] (setting [24]); 3.1 µM in the data set with Candida albicans Biofilm. Further, the EC50 at 48 h in [3] was above 50 µM. Further, in data set [4], the “Selectivity Index MΦ/Veterinary” value is above 7. Moreover, the “Selectivity Index MΦ/Reference” value in data set [7] is listed as above 5.
